In the supplement of paper PMC10307832 one finds relative viability data, which are given here for eight cell lines.

Holding throughout (test): relative viability (nuclei count vs DMSO), 5 days (fraction); higher = more cells survive
Compound in assay [1]: O=C(CCCCCCNC(=O)c1cnc(N(c2ccccc2)c2ccccc2)nc1)NO [Ricolinostat] + N=C(N)NC(=N)NCCc1ccccc1 [Phenformin] (partner 250 µM)
The gist of the method: (§1)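 Lung cancer cell lines were seeded in 1536-well plates and dosed by pin tool the next day, with either a single drug or a fixed anchor-drug dose combined with five library-drug doses (not always all listed) spaced in √10 steps. Five days later, one step fixed the cells and stained their nuclei (final 0.05% Triton X-100, 1% formaldehyde, 1 ug/ml Hoechst), and nuclei were counted on 4× images. Relative viability is the nuclei count in treated wells divided by the count in vehicle wells, and each value is the median of duplicate plates.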

Compound in assay [2]: C1=CC=C(C(=C1)C2=CC=C(C=C2)C3=CSC4=C3C(=C(C(=O)N4)C#N)O)O + Cc1cc(Nc2cc(N3CCN(C)CC3)nc(Sc3ccc(NC(=O)C4CC4)cc3)n2)n[nH]1 [Tozasertib] (partner 0.1 µM)
The gist of the method:
as §1

Compound in assay [3]: C1=CC=C(C(=C1)C2=CC=C(C=C2)C3=CSC4=C3C(=C(C(=O)N4)C#N)O)O + O=C(CCCCCCC(=O)Nc1ccccc1)NO [Vorinostat] (partner 1 µM)
Put shortly:
as §1

Compound in assay [4]: CC1=CN2C(=O)C=C(N=C2C(=C1)C(C)NC3=CC=CC=C3)N4CCOCC4 [TGX 221] + C[C@]1(O)C[C@@H](c2nc(-c3ccc4ccc(-c5ccccc5)nc4c3)c3c(N)nccn32)C1 [Linsitinib] (partner 1 µM)
Put shortly:
as §1

With NCI-H1395, the relative viability amounted to 0.48 in assay [1] (first compound 0.253 µM); 0.425 in assay [1] (first compound 0.8 µM); 0.463 in assay [1] (first compound 2.53 µM); 0.666 in assay [2] (first compound 0.08 µM); 0.843 in assay [2] (first compound 0.253 µM); 0.804 in assay [2] (first compound 0.8 µM). Besides, the relative viability is 0.716 in assay [2] (first compound 2.53 µM); 0.772 in assay [2] (first compound 8 µM); 0.683 in assay [3] (first compound 0.253 µM); 0.551 in assay [3] (first compound 0.8 µM); 0.618 in assay [3] (first compound 2.53 µM); 0.606 in assay [3] (first compound 8 µM). The relative viability in assay [4] (first compound 0.08 µM) is 1; in assay [4] (first compound 0.253 µM) it was 0.865; in assay [4] (first compound 0.8 µM) it was 1.04; in assay [4] (first compound 2.53 µM), 0.598; in assay [4] (first compound 8 µM), 0.665.

In the case of NCI-H2228, the relative viability in assay [1] (first compound 0.08 µM) amounted to 0.255; in assay [1] (first compound 0.253 µM), 0.341; in assay [1] (first compound 0.8 µM), 0.355; in assay [1] (first compound 2.53 µM), 0.342; in assay [2] (first compound 0.08 µM), 0.288; in assay [2] (first compound 0.253 µM), 0.244. The relative viability in assay [2] (first compound 0.8 µM) stood at 0.245; in assay [2] (first compound 2.53 µM), 0.297; in assay [2] (first compound 8 µM), 0.277; in assay [3] (first compound 0.08 µM), 0.555; in assay [3] (first compound 0.253 µM) it was 0.557; in assay [3] (first compound 0.8 µM), 0.648. The relative viability was 0.524 in assay [3] (first compound 2.53 µM); 0.36 in assay [3] (first compound 8 µM); 0.411 in assay [4] (first compound 0.08 µM); 0.624 in assay [4] (first compound 0.253 µM); 0.625 in assay [4] (first compound 0.8 µM); 0.29 in assay [4] (first compound 2.53 µM). In assay [4] (first compound 8 µM), the relative viability was 0.344.

Consider NCI-H2009, for which the relative viability was 0.455 in assay [1] (first compound 0.08 µM); 0.46 in assay [1] (first compound 0.253 µM); 0.446 in assay [1] (first compound 0.8 µM); 0.43 in assay [1] (first compound 2.53 µM); 0.789 in assay [2] (first compound 0.08 µM); 0.706 in assay [2] (first compound 0.253 µM). Moreover, the relative viability in assay [2] (first compound 0.8 µM) worked out at 0.719; in assay [2] (first compound 2.53 µM), 0.73; in assay [2] (first compound 8 µM), 0.683; in assay [3] (first compound 0.08 µM), 0.728; in assay [3] (first compound 0.253 µM), 0.715; in assay [3] (first compound 0.8 µM), 0.859. Further, the relative viability in assay [3] (first compound 2.53 µM) amounted to 0.716; in assay [3] (first compound 8 µM), 0.638; in assay [4] (first compound 0.08 µM) it was 1.22; in assay [4] (first compound 0.253 µM) it was 1.13; in assay [4] (first compound 0.8 µM) it was 1.03; in assay [4] (first compound 2.53 µM), 0.994. Further, the relative viability in assay [4] (first compound 8 µM) was determined as 0.809.

As for LXF-289, the relative viability amounted to 0.495 in assay [1] (first compound 0.08 µM); 0.463 in assay [1] (first compound 0.253 µM); 0.538 in assay [1] (first compound 0.8 µM); 0.529 in assay [1] (first compound 2.53 µM); 0.179 in assay [2] (first compound 0.08 µM); 0.173 in assay [2] (first compound 0.253 µM). Also, the relative viability in assay [2] (first compound 0.8 µM) was found to be 0.201; in assay [2] (first compound 2.53 µM), 0.179; in assay [2] (first compound 8 µM), 0.191; in assay [3] (first compound 0.08 µM), 0.902; in assay [3] (first compound 0.253 µM), 0.831; in assay [3] (first compound 0.8 µM) it was 0.833. Moreover, the relative viability in assay [3] (first compound 2.53 µM) was found to be 0.82; in assay [3] (first compound 8 µM), 0.907; in assay [4] (first compound 0.08 µM), 0.956; in assay [4] (first compound 0.253 µM), 0.965; in assay [4] (first compound 0.8 µM) it was 0.98; in assay [4] (first compound 2.53 µM) it was 0.931. In addition, the relative viability in assay [4] (first compound 8 µM) is 1.

Regarding NCI-H1975, the relative viability was found to be 0.377 in assay [1] (first compound 0.08 µM); 0.413 in assay [1] (first compound 0.253 µM); 0.396 in assay [1] (first compound 0.8 µM); 0.401 in assay [1] (first compound 2.53 µM); 0.54 in assay [2] (first compound 0.08 µM); 0.742 in assay [2] (first compound 0.253 µM). The relative viability in assay [2] (first compound 0.8 µM) was determined as 0.826; in assay [2] (first compound 2.53 µM), 1.02; in assay [2] (first compound 8 µM) it was 0.651; in assay [3] (first compound 0.08 µM), 0.665; in assay [3] (first compound 0.253 µM), 0.78; in assay [3] (first compound 0.8 µM), 0.736. For the same cell line, the relative viability in assay [3] (first compound 2.53 µM) was determined as 0.81; in assay [3] (first compound 8 µM) it was 0.677; in assay [4] (first compound 0.08 µM) it was 0.843; in assay [4] (first compound 0.253 µM), 0.778; in assay [4] (first compound 0.8 µM), 0.902; in assay [4] (first compound 2.53 µM) it was 0.943. Also, the relative viability in assay [4] (first compound 8 µM) amounted to 0.697.

With NCI-H2347, the relative viability was determined as 0.295 in assay [1] (first compound 0.08 µM); 0.32 in assay [1] (first compound 0.253 µM); 0.337 in assay [1] (first compound 0.8 µM); 0.302 in assay [1] (first compound 2.53 µM); 0.574 in assay [2] (first compound 0.08 µM); 0.461 in assay [2] (first compound 0.253 µM). Further, the relative viability in assay [2] (first compound 0.8 µM) is 1.06; in assay [2] (first compound 2.53 µM), 0.526; in assay [2] (first compound 8 µM), 0.583; in assay [3] (first compound 0.08 µM), 0.507; in assay [3] (first compound 0.253 µM), 0.59; in assay [3] (first compound 0.8 µM), 0.55. For the same cell line, the relative viability in assay [3] (first compound 2.53 µM) was determined as 0.539; in assay [3] (first compound 8 µM), 0.568; in assay [4] (first compound 0.08 µM), 0.931; in assay [4] (first compound 0.253 µM) it was 0.972; in assay [4] (first compound 0.8 µM), 0.936; in assay [4] (first compound 2.53 µM) it was 0.885. Also, in assay [4] (first compound 8 µM), the relative viability worked out at 0.786.

With RERF-LC-KJ, the relative viability came to 0.452 in assay [1] (first compound 0.08 µM); 0.372 in assay [1] (first compound 0.253 µM); 0.406 in assay [1] (first compound 0.8 µM); 0.374 in assay [1] (first compound 2.53 µM); 0.488 in assay [2] (first compound 0.08 µM); 0.474 in assay [2] (first compound 0.253 µM). The relative viability worked out at 0.52 in assay [2] (first compound 0.8 µM); 0.527 in assay [2] (first compound 2.53 µM); 0.463 in assay [2] (first compound 8 µM); 0.639 in assay [3] (first compound 0.08 µM); 0.763 in assay [3] (first compound 0.253 µM); 0.751 in assay [3] (first compound 0.8 µM). Further, the relative viability was determined as 0.714 in assay [3] (first compound 2.53 µM); 0.544 in assay [3] (first compound 8 µM); 0.803 in assay [4] (first compound 0.08 µM); 0.845 in assay [4] (first compound 0.253 µM); 0.852 in assay [4] (first compound 0.8 µM); 0.721 in assay [4] (first compound 2.53 µM). The relative viability in assay [4] (first compound 8 µM) is 0.747.

For the cell line BEN, the relative viability amounted to 0.321 in assay [1] (first compound 0.08 µM); 0.283 in assay [1] (first compound 0.253 µM); 0.228 in assay [1] (first compound 0.8 µM); 0.225 in assay [1] (first compound 2.53 µM); 0.477 in assay [2] (first compound 0.08 µM); 0.507 in assay [2] (first compound 0.253 µM). Also, the relative viability in assay [2] (first compound 0.8 µM) was 0.747; in assay [2] (first compound 2.53 µM), 0.75; in assay [2] (first compound 8 µM), 0.541; in assay [3] (first compound 0.08 µM) it was 0.567; in assay [3] (first compound 0.253 µM), 0.678; in assay [3] (first compound 0.8 µM) it was 0.59. For the same cell line, the relative viability in assay [3] (first compound 2.53 µM) is 0.531; in assay [3] (first compound 8 µM), 0.573; in assay [4] (first compound 0.08 µM), 0.869; in assay [4] (first compound 0.253 µM) it was 0.839; in assay [4] (first compound 0.8 µM), 0.878; in assay [4] (first compound 2.53 µM) it was 0.823. For the same cell line, in assay [4] (first compound 8 µM), the relative viability was determined as 0.774.
